Experiments:
[1] = molecular target: T1, E. coli F1F0 ATP synthase (Escherichia coli, UniProt P0ABB0+P0ABB4); test: ATP synthesis in proteoliposomes, luciferin/luciferase luminescence; type: biochemical; parameters: gene atpA; with ATP synthase gamma chain; ATP synthase subunit delta; ATP synthase epsilon chain; ATP synthase subunit a; ATP synthase subunit b; ATP synthase subunit c; details: 250 μM ADP, 40 mM KH2PO4, 5 mM MgCl2, 1.5 mM NAD+, 750 μM NADPH; 50 mM HEPES pH 7.5, 100 mM KCl; co-reconstituted with transhydrogenase
[2] = molecular target: T1, E. coli F1F0 ATP synthase; parameters: gene atpA; details: 250 μM ATP, 2-4 mM MgCl2; 50 mM HEPES pH 7.5, 100 mM KCl; co-reconstituted with transhydrogenase

Nc1ncnc2c1ncn2[C@@H]1O[C@H](COP(=O)(O)OP(=O)(O)O)[C@@H](O)[C@H]1O [ADP]
ATP synthesis in proteoliposomes, luciferin/luciferase luminescence [1]: upon addition of NADPH, continuous ATP synthesis is observed

Nc1ncnc2c1ncn2[C@@H]1O[C@H](COP(=O)(O)OP(=O)(O)OP(=O)(O)O)[C@@H](O)[C@H]1O [ATP]
ATP-driven proton pumping in proteoliposomes (ACMA quench); APADH absorbance 375 [2]: addition of ATP energized inward proton pumping by ATP synthase

From article PMC8551311, “Energy transfer between the nicotinamide nucleotide transhydrogenase and ATP synthase of Escherichia coli” (Scientific Reports, 2021)
